According to article PMC6131351, “Pharmacological difference between degrader and inhibitor against oncogenic BCR-ABL kinase” (Scientific Reports, 2018):

Columns and labels:
cIAP1 (BIR3) = biological target: T1, cIAP1 (BIR3) (Homo sapiens, UniProt Q13490); experiment: TR-FRET IAP/Smac peptide interaction assay, cIAP1; conditions: FITC-Smac probe, read-out: Binding affinity IC50 cIAP1
T1 construct: human cIAP1 (BIR3, Leu250-Gly350); made in house; host or cells: E. coli
Experimental: (§1) The TR-FRET assay was carried out using 384-well white flat-bottom plates (Greiner Bio-One) and the signal was measured using an EnVision Multilabel Plate Reader (PerkinElmer, Waltham, MA, USA). The solution in each well was excited with a laser (λ = 337 nm) reflected by a dichroic mirror (D400/D505 (Perkin Elmer) and fluorescence from terbium (Tb) and BODIPY or FITC was detected through two emission filters (CFP 486 (Perkin Elmer) for Tb and Emission 515 (Perkin Elmer) for BODIPY and FITC). The assay buffer used in this study was composed of 50 mM HEPES (pH 7.2–7.5), 10 mM MgCl2, 1 mM EGTA, 0.1 mM DTT and 0.01% (v/v) Brij^(R) 35. All assays were carried out at room temperature in triplicate or quadruplicate formats.
(§2) The half maximal inhibitory concentration (IC50) of test compounds was calculated by fitting the data with the logistic equation using GraphPad Prism 5 (GraphPad Software, Inc., La Jolla, CA, USA) or XLfit (IDBS, Guildford, UK).
(§3) His-IAP proteins (XIAP, cIAP1 or cIAP2), FITC-Smac, Tb-SA and the biotinylated anti-His antibody (Life Technologies) were mixed in the assay buffer and incubated for over 1 h at room temperature before addition to the assay plate. […] After 1 h incubation at room temperature, the TR-FRET signal was measured using the EnVision Multilabel Plate Reader. […]

XIAP (BIR3) = biological target: T2, XIAP (BIR3) (Homo sapiens, UniProt P98170); experiment: TR-FRET IAP/Smac peptide interaction assay, XIAP; conditions: FITC-Smac probe, read-out: Binding affinity IC50 XIAP
T2 construct: human XIAP (BIR3, Asn252-Thr356, 895-XB-050); purchased R&D Systems 895-XB-050
T2 sequence (P98170 252-356): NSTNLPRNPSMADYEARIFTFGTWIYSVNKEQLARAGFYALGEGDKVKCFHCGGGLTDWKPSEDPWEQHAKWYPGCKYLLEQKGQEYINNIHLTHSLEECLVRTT
Experimental: as §1, §2, §3

K562 cells = experiment: WST cell growth inhibition, K562; type: cell-based, Human; conditions: 48 h, WST assay; for IC50: Homo sapiens, means ± SD (n = 3)
Experimental: (§4) Human CML (K562 and KU812 cells), acute T-lymphoblast leukemia (MOLT-4 cell), and T cell leukemia (Jurkat cell) were cultured in Roswell Park Memorial Institute-1640 medium (Sigma-Aldrich, St. Louis, MO, USA) containing 10% fetal bovine serum (Thermo Fisher Scientific, Waltham, MA, USA) and 50 μg/ml kanamycin (Sigma-Aldrich). KU812 cells were obtained from Japanese Collection of Research Bioresources (JCRB, Osaka, Japan) Cell Bank (JCRB0104)[58].
(§5) Cell viability was determined using water-soluble tetrazolium WST-8 (4-[3-(2-methoxy-4-nitrophenyl)-2-(4-nitrophenyl)-2H-5-tetrazolio]-1,3-benzene disulfonate) for the spectrophotometric assay and conducted according to the manufacturer’s instructions (Dojindo, Tokyo, Japan). Cells were seeded at a concentration of 5 × 10^3 cells per well in a 96-well culture plate, and treated with the indicated compounds for 48 h. The WST-8 reagent was added, and the cells were incubated for 0.5 h at 37 °C in a humidified atmosphere of 5% CO2. The absorbance at 450 nm of the medium was measured using the EnVision Multilabel Plate Reader.

KU812 cells = experiment: WST cell growth inhibition, KU812; type: cell-based; conditions: Homo sapiens, 48 h, WST assay, means ± SD (n = 3)
Experimental: as §4, §5

MOLT-4 cells = experiment: WST cell growth inhibition, MOLT-4 (BCR-ABL negative); type: cell-based; conditions: Homo sapiens, MOLT4 cells, 48 h, WST assay, means ± SD (n = 3)
[1] = tested on: phosphorylation of BCR-ABL, STAT5 and CrkL; experiment: Downstream kinase signaling (phosphorylation) by western blot in K562 cells; type: cell-based, Human
Experimental: Cells were collected and lysed in a lysis buffer (0.5% Triton X-100, 0.01 M Tris-HCl (pH 7.5), 0.15 M NaCl, Complete Mini protease inhibitor cocktail (Roche Applied Science, Indianapolis, IL, USA) and PhosStop phosphatase inhibitor cocktail (Roche Applied Science)). Protein concentrations were measured by the BCA method (Thermo Fisher Scientific) and an equal amount of protein lysate was separated by SDS-PAGE, transferred to polyvinylidene difluoride membranes (Merck Millipore) and analyzed by western blot using an appropriate antibody. The immunoreactive proteins were visualized using Clarity Western ECL substrate (Bio-Rad, Hercules, CA, USA) and their light emission was quantified with a LAS-3000 lumino-image analyzer (Fuji, Tokyo, Japan). The following antibodies were used: anti-cAbl rabbit polyclonal antibody (pAb) (#2862), anti-XIAP rabbit pAb (#2042), anti-phospho-cAbl rabbit pAb (#3009), anti-STAT5 rabbit pAb (#9363), anti-phospho-STAT5 rabbit pAb (#9359), anti-CrkL mouse monoclonal antibody (mAb) (#3182) and anti-phospho-CrkL rabbit pAb (#3181), anti-PARP rabbit pAb (#9532), and anti-cleaved Caspase 3 rabbit pAb (#9664) (Cell Signaling Technology, Danvers, MA, USA); anti-β-tubulin (ab6046) rabbit pAb (Abcam, Cambridge, UK) and anti-GAPDH rabbit pAb (sc-25778 HRP) (Santa Cruz, Dallas, TX, USA); anti-cIAP1 goat pAb (AF8181) (R&D systems).
Cells were seeded at a concentration of 2 × 10^6 cells per 10-cm tissue culture dish and treated with the indicated compounds for the indicated times. Then, the cells were washed three times to remove the compounds, and incubated in drug-free medium for the indicated times.

[2] = K562, 50 times IC50 for 12 h (time 0)

T1 sequence (Q13490 250-350): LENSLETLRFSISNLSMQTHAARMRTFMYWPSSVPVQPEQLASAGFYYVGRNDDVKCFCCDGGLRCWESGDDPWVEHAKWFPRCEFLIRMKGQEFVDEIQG

| IC50 (cIAP1 (BIR3)) [nM] | IC50 (XIAP (BIR3)) [nM] | IC50 (K562 cells) [nM] | IC50 (MOLT-4 cells) [nM] | SMILES | suppression of K562 cell growth (comparison) (K562 cells) | IC50 (KU812 cells) [nM] | phosphorylation of BCR-ABL, STAT5 and CrkL [1, 2] | phosphorylated BCR-ABL, STAT5 and CrkL after drug removal ([1]; K562, 50 times IC50 for 12 h, 48 and 72 h after drug removal) | phosphorylation of BCR-ABL, STAT5 and CrkL ([1]; K562 cells, 6 h) |
| --- | --- | --- | --- | --- | --- | --- | --- | --- | --- |
| 10 | 50 | 8.6 | 1720 ± 64.9 | CN[C@@H](C)C(=O)N[C@H](C(=O)N1CCC[C@H]1c1nc(C(=O)c2cccc(OCCOCCOCCOCC(=O)N3CCN(c4cc(Nc5ncc(C(=O)Nc6c(C)cccc6Cl)s5)nc(C)n4)CC3)c2)cs1)C1CCCCC1 [DAS-IAP] | more potent suppression of K562 cell growth than DAS-VHL | 8.97 ± 0.99 | inhibited | remained significantly diminished | suppressed |
| > 1000 | > 1000 | 3.93 | 1900 ± 108 | CN[C@@H](C)C(=O)N(C)[C@H](C(=O)N1CCC[C@H]1c1nc(C(=O)c2cccc(OCCOCCOCCOCC(=O)N3CCN(c4cc(Nc5ncc(C(=O)Nc6c(C)cccc6Cl)s5)nc(C)n4)CC3)c2)cs1)C1CCCCC1 [DAS-meIAP] |  | 3.57 ± 0.22 | inhibited |  | suppressed |
